“Also recorded” adds a separate entry of the source. Oligonucleotides are written 5' to 3', each unit as a sugar letter and its base; * is a phosphorothioate linkage, no mark a phosphodiester; rarer units and linkages stand in square brackets, end groups in braces. Plain capitals give the bases only. m = 2'-O-methyl; r = 2'-OH (RNA); f = 2'-fluoro
Legend:
[1] = Particle size of RNA-poly-L-arginine complexes by Dynamic Light Scattering; conditions: 10 minute incubation (FIG. 9)
Experimental: Particle sizes were determined by Dynamic Light Scattering (Wyatt Technology). Samples were placed in multiple wells in a 384-well plate and each well was measured ten times for 5 seconds. Z-averages were reported.

TLR7 = target: T1, TLR7 (Homo sapiens, UniProt Q9NYK1); experiment: PBMC stimulation with p-L-arginine-complexed RNA ligands, IFN-α ELISA; assay type: cell-based; conditions: human PBMCs; for TLR7 selectivity (IFN-α versus TNF-α secretion): p-L-arginine delivery (FIG. 7); for IFN-α secretion (TLR7 activity): p-L-arginine delivery, 16 hours, ELISA (FIG. 7)
T1 construct: Peripheral blood mononuclear cells (PBMCs) were obtained from buffy coats from healthy adult donors; endogenous in cells; host or cells: primary human PBMCs from healthy donor buffy coats (TLR7 expressed by pDCs)
T1 sequence (Q9NYK1 27-1049): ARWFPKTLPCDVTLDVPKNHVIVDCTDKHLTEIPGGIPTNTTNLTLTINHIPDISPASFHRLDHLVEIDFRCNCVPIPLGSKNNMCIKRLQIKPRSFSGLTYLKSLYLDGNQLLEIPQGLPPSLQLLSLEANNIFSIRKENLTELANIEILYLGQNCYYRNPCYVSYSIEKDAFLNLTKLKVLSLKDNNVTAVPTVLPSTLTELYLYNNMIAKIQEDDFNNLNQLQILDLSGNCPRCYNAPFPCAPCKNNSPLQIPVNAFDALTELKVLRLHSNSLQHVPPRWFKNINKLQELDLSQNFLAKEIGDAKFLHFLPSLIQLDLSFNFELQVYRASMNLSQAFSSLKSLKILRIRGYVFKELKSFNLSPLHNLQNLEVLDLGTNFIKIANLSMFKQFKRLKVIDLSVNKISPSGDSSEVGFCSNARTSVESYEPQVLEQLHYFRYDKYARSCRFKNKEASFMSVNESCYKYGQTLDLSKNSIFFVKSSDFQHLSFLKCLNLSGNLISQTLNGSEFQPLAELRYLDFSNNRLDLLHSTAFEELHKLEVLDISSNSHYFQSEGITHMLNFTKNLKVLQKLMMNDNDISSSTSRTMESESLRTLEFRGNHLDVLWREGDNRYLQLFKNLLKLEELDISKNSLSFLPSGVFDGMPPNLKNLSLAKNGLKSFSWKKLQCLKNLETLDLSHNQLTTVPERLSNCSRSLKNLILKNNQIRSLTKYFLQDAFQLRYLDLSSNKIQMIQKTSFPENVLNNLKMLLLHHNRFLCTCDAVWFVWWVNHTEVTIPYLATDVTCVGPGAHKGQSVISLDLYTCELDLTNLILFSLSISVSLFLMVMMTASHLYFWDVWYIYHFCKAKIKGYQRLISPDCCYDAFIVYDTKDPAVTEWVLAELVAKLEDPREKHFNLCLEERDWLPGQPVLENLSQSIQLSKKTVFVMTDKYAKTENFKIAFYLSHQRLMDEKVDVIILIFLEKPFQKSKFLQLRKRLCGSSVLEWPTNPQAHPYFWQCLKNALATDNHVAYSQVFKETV
Experimental: (§1) Peripheral blood mononuclear cells (PBMCs) were obtained from buffy coats from healthy adult donors. Buffy coat samples were first diluted with an equal volume of phosphate-buffered saline (PBS). Next, PBMCs were isolated via density gradient centrifugation with Lymphoprep density gradient media ([…] Technologies) and SepMate-50 tubes ([…] Technologies). Samples were centrifuged at 1000 g for 15 minutes. After centrifugation, the upper layers were collected by pouring into a new tube, diluted with PBS, and centrifuged at 450×g for 5 minutes. To lyse red blood cells, cell pellets were resuspended with 10 mL Ammonium-Chloride-Potassium (ACK) Lysis Buffer and incubated for 8 minutes at room temperature. After lysis, cells were washed with PBS and passed through two 70 μm cell strainers. Viable cell counts were determined with a Vi-CELL cell counter (Beckman Coulter). […] Guanosine was added between about 20 and about 30 minutes before the addition of poly-[…])-complexed RNA. […] After mixing by pipetting up and down, the reaction was incubated for 10 minutes, pipetted up and down again, and then added to the cells. In some experiments, RNA ligands were used at a final concentration of 0.6 μg/ml. Where indicated as “+2'3' cGMP”, 2'3' cyclic GMP purchased from eMolecules was complexed together with the RNA ligands. The final concentration of 2'3' cyclic GMP was 5 μg/ml. p-L-arginine was adjusted accordingly to keep the mass ratio of nucleic acid:p-L-arginine constant. Cell culture supernatants were collected 15-18 hours after stimulation and stored at -80° C. Cytokines in cell culture supernatants were detected with the BD OptEIA human TNF ELISA Set (BD Biosciences), and either Invitrogen IFN alpha Human Matched Antibody Pair kit (Thermo Fisher Scientific) or Human IFN Alpha Multi-Subtype ELISA Kit (PBL Assay Science). To test the effects of the RNA ligands described in Example 1 on TLR7 and TLR8 activation, PBMCs were stimulated with the RNA ligands using p-L-arginine complex delivery, delivery with DOTAP, or delivery without a carrier. Activity of TLR7 and TLR8 was assessed based on measurements of IFN-α or TNF-α by enzyme-linked immunosorbent assays (ELISA). In this setting, as depicted in FIG. 6, IFN-α induced by small RNAs is derived from TLR7 expressed by pDCs, or from RIG-I expressed by monocytes. In contrast, TNF-α secretion is derived from monocytes and serves as an indication of TLR8 activation. As shown in this figure, the p-L-arginine delivery restricts most of the activation to TLRs. First, the effects of the RNA ligands on TLR7 and TLR8 activation using p-L-arginine complex delivery were tested.

pDC-depleted PBMCs = experiment: IFN-α secretion by pDC-depleted PBMCs versus PBMCs; assay type: cell-based, human; conditions: Lipofectamine-mediated transfection, pDC-depleted PBMCs vs PBMCs (FIG. 8)
Experimental: Peripheral blood mononuclear cells (PBMCs) were obtained from buffy coats from healthy adult donors. Buffy coat samples were first diluted with an equal volume of phosphate-buffered saline (PBS). Next, PBMCs were isolated via density gradient centrifugation with Lymphoprep density gradient media ([…] Technologies) and SepMate-50 tubes ([…] Technologies). Samples were centrifuged at 1000 g for 15 minutes. After centrifugation, the upper layers were collected by pouring into a new tube, diluted with PBS, and centrifuged at 450×g for 5 minutes. To lyse red blood cells, cell pellets were resuspended with 10 mL Ammonium-Chloride-Potassium (ACK) Lysis Buffer and incubated for 8 minutes at room temperature. After lysis, cells were washed with PBS and passed through two 70 μm cell strainers. Viable cell counts were determined with a Vi-CELL cell counter (Beckman Coulter). […]
Cell culture supernatants were collected 15-18 hours after stimulation and stored at −80° C. Cytokines in cell culture supernatants were detected with the BD OptEIA human TNF ELISA Set (BD Biosciences), and either Invitrogen IFN alpha Human Matched Antibody Pair kit (Thermo Fisher Scientific) or Human IFN Alpha Multi-Subtype ELISA Kit (PBL Assay Science). […]

TLR8 [2] = target: T2, TLR8 (Homo sapiens, UniProt Q9NR97); experiment: PBMC stimulation with p-L-arginine-complexed RNA ligands, TNF-α ELISA; assay type: cell-based; conditions: human PBMCs, p-L-arginine delivery, 16 hours, ELISA (FIG. 7)
T2 construct: Peripheral blood mononuclear cells (PBMCs) were obtained from buffy coats from healthy adult donors; endogenous in cells; host or cells: primary human PBMCs from healthy donor buffy coats (TLR8 in monocytes)
T2 sequence (Q9NR97 27-1041): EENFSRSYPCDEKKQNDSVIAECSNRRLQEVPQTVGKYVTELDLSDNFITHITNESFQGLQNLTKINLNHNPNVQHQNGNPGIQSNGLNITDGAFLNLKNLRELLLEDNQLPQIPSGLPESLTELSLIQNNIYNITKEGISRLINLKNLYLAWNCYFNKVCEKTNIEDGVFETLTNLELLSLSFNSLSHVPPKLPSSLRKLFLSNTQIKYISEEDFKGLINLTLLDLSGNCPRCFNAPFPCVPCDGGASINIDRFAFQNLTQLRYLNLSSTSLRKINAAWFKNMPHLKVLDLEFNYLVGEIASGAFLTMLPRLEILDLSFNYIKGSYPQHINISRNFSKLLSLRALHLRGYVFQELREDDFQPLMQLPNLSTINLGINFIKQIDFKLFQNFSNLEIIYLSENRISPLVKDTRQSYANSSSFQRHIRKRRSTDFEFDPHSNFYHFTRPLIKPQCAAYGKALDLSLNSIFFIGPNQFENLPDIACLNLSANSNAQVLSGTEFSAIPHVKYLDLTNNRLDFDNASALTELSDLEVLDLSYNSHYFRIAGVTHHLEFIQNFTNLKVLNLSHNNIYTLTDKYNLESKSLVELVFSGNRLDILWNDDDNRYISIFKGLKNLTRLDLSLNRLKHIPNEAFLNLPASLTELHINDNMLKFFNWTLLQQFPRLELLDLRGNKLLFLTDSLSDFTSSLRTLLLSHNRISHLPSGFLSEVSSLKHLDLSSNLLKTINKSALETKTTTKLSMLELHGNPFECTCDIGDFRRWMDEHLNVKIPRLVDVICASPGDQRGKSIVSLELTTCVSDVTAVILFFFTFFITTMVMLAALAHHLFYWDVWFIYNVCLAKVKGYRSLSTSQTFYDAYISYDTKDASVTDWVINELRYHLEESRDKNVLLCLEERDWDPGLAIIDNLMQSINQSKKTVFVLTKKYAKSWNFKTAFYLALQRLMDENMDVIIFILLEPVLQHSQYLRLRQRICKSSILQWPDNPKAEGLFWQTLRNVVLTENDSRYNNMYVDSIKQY
Experimental: as §1

TLR8 [3] = target: T2, TLR8; experiment: PBMC stimulation with DOTAP-complexed RNA ligands, TNF-α ELISA; assay type: cell-based; conditions: human PBMCs, DOTAP delivery, 0.6 μg/ml and 2 μg/ml, 16 hours (FIGS. 10A-10B)

Substance	Particle size (diameter) of RNA-poly-L-arginine complexes [1]	TLR7 selectivity (IFN-α versus TNF-α secretion) (TLR7)	IFN-α secretion (TLR7 activity) (TLR7)	IFN-α secretion after pDC depletion (pDC-depleted PBMCs)	TNF-α secretion (TLR8 activity) (TLR8 [2])	TNF-α secretion (TLR8 activity) (TLR8 [3])
C*C*G*A*G*C*C*G*C*fU-U*fU-U*C*C*C (rC*rC*rG*rA*rG*rC*rC*rG*rC*fUrU*fUrU*rC*rC*rC) [ORN7015, 2′-fluoro modified version of ORN7013]	behaved similarly	moderately selective	moderately selective and active			
GGGACGCUGACCCAGAAGAUCACUAGAAAUAGUAGAUCUUCUGGGUCAGCGUCCC (GGGACGCUGACCCAGAAGAUCACUAGAAAUAGUAGAUCUUCUGGGUCAGCGUCCC; RNA, phosphodiester; in vitro transcribed, further chemistry not given here) [IVT4, in vitro transcribed control, RIG-I ligand 3P-RNA]				maintained after pDC depletion		
C*C*G*A*G*C*C*G*C*U*U*U*U*C*C*C (CCGAGCCGCUUUUCCC; all phosphorothioate, sugars by position not given here) [ORN7013, reference compound]	behaved similarly	limited TLR7 selectivity; also recorded: less TLR7-selective	limited TLR7 selectivity and activity; also recorded: less TLR7-selective and active			
C*C*G*A*G*C*C*G*C*mU-U*fU-U*C*C*C (rC*rC*rG*rA*rG*rC*rC*rG*rC*mUrU*fUrU*rC*rC*rC) [ORN7016, 2′-fluoro- and 2′O-methyl-modified version of ORN7013]	behaved similarly	TLR7-selective	weakly active			
C*C*U*U*C*U*U*C*U*U*C*U*U*C*U*U*C*U*U*C (rC*rC*rU*rU*rC*rU*rU*rC*rU*rU*rC*rU*rU*rC*rU*rU*rC*rU*rU*rC) [ORN7012]	behaved similarly				TLR8-active	further increased TLR8 activation
C-G-G-mC-U-C-G-G-C-A-G-A-A-G-C-C-G-G-G-C-C (rCrGrGmCrUrCrGrGrCrArGrArArGrCrCrGrGrGrCrC; hairpin) [ORN70230me, 2′O-methyl-C-modified ORN7023]	behaved similarly	maintained TLR7 selectivity; also recorded: TLR7-selective	further increasing the activity; also recorded: highly active			
